Laboratory results taken from patent US20250332149A1, “PIPERIDINE COMPOUNDS AND PHARMACEUTICAL COMPOSITIONS” (Lumos Pharma, Inc., priority 2024, published 2025).

Legend:
[1] = test system: serum growth hormone (GH); assay: Phase 1 study Part 1: PD, serum GH concentration; assay type: in vivo, human; conditions: for serum GH concentration, peak, mean (SD): 1 h post-dose; for serum GH concentration, mean (SD): pre-dose
Source text: • Part 1: To evaluate PD (GH response) of the new LUM-201 formulation as capsule (test). • Part 2: To measure PD (GH response) to LUM-201 administered as capsule (test) in fasted versus fed state. PD Results (pt 1): Individual serum growth hormone (GH) concentration time data were obtained for each subject and treatment cohort. […] Following the administration of LUM-201, the serum GH concentration values increased post dose as expected. At pre-dose, mean (SD) serum GH concentration values were 0.2970 (0.7404) ng/mL for Treatment A, 0.2052 (0.3174) ng/mL for Treatment B, 0.5303 (1.354) ng/mL for Treatment C, and 0.1454 (0.1981) ng/mL for Treatment D. The serum GH concentration value peaked at 1 h post-dose for all treatment groups. 17.10 (15.07) ng/mL in Treatment A, 16.55 (16.36) ng/mL in Treatment B, 17.30 (17.05) ng/mL in Treatment C, and 18.01 (14.32) ng/mL in Treatment D. The trend of serum GH concentration changes in all 4 treatment groups was similar, except for the serum GH concentration in Treatment A that approached the peak concentration sooner, relative to the other treatments, at 0.5 h post-dose.

[2] = test system: serum IGF-1; assay: Phase 1 study Part 2: PD, serum IGF-1 concentration fasted vs fed; assay type: in vivo, human
Protocol: The serum IGF-1 concentration values remained stable over the sampling time interval post dose. At pre-dose, mean (SD) serum […] concentration values were 209.2 (54.28) ng/mL for Treatment A and 188.8 (26.11) ng/mL for Treatment B. At 24 h post-dose, the serum GH concentration value peaked at 244.7 (37.66) ng/mL in Treatment A and 220.8 (43.50) ng/mL in Treatment B.

[3] = Part 1, Treatment A: five 18 mg tablets (90 mg), fasted
[4] = Part 1, Treatment B: 85.3 mg whole capsule, fasted
[5] = Part 1, Treatment C: 85.3 mg capsule contents (dry), fasted
[6] = Part 1, Treatment D: 85.3 mg capsule contents in banana puree

`CC(C)(N)C(=O)N[C@H](COCc1ccccc1)C(=O)N1CCC2(CC1)CN(S(C)(=O)=O)c1ccccc12` [LUM-201, N-[1(R)-[(1,2-dihydro-1-methanesulfonylspiro[3H-indole-3,4′-piperdin]-yl)carbonyl]-2-(phenylmethyloxy)ethyl]-2-amino-2-methylpropanamide methanesulfonate] was tested, and the “serum GH concentration, peak, mean (SD)” value [1, 3] was 17.10 (15.07) ng/mL, the “serum GH concentration, peak, mean (SD)” value [1, 4] was 16.55 (16.36) ng/mL and the “serum GH concentration, peak, mean (SD)” value [1, 5] was 17.30 (17.05) ng/mL. For the same compound, the “serum GH concentration, peak, mean (SD)” value [1, 6] was 18.01 (14.32) ng/mL, the “PD parameters, capsule versus tablets” value ([1]; Part 1, serum GH and serum IGF-1, 4 treatment groups) was “no observed differences” and the “serum GH concentration, mean (SD)” value [1, 3] was 0.2970 (0.7404) ng/mL. For the same compound, the “serum GH concentration, mean (SD)” value [1, 4] was 0.2052 (0.3174) ng/mL, the “serum GH concentration, mean (SD)” value [1, 5] was 0.5303 (1.354) ng/mL and the “serum GH concentration, mean (SD)” value [1, 6] was 0.1454 (0.1981) ng/mL. For the same compound, the “serum IGF-1 concentration” value ([2]; 24 h post-dose, Part 2, Treatment A: 85.3 mg capsule, fasted) was 244.7 (37.66) ng/mL, the “serum IGF-1 concentration” value ([2]; 24 h post-dose, Part 2, Treatment B: 85.3 mg capsule after high-fat meal) was 220.8 (43.50) ng/mL and the “serum IGF-1 concentration values and trend, fasted vs fed” value ([2]; Part 2, Treatment A (fasted state) and Treatment B (fed state)) was “comparable”. For the same compound, the “serum IGF-1 concentration” value ([2]; pre-dose, Part 2, Treatment A: 85.3 mg capsule, fasted) was 209.2 (54.28) ng/mL and the “serum IGF-1 concentration” value ([2]; pre-dose, Part 2, Treatment B: 85.3 mg capsule after high-fat meal) was 188.8 (26.11) ng/mL.
